# Experimental data taken from patent US20120190703A1, “SALTS OF 13A-(S)DESOXYTYLOPHORININE, PREPARATION METHODS AND PHARMACEUTICAL COMPOSITIONS AND USES THEREOF” (priority 2009, published 2012).
# Where “and” joins values, the source holds several entries; their conditions need not be identical. Equal entries are not always repeated. Where two headings read alike, the source gives them in different places. Marks after values point to notes of the source that are not given here.
# Experiments:
# Solubility in water = type: physicochemical
# H22 tumor-bearing mice = conditions: intragastric once daily
# Text: To determine the pharmacodynamic characters of 13a-(S)-deoxytylophorinine and its salts, the impact of these compounds to the tumor growth in H22 tumor-bearing mice was surveyed.
# Male Kunming mice were obtained from the Laboratory Animal Center, Academy of Military Medical Science. Body weight 18˜22 g. 6 animals per group, totally 10 groups, 60 animals.
# (+)-13a-(S)-deoxytylophorinine, (+)-13a-(S)-deoxytylophorinine Tartrate, (+)-13a-(S)-deoxytylophorinine Maleate, (+)-13a-(S)-deoxytylophorinine Citrate, Cytoxane (CTX) as positive control.
# (+)-13a-(S)-deoxytylophorinine was administered at high dose (5 mg/kg) and low dose (2.5 mg/kg). Three (+)-13a-(S)-deoxytylophorinine salts were administered at high dose and low dose as equal moles with their prototype (Tartrate: 7.05 mg/kg, 3.53 mg/kg; Malate: 6.60 mg/kg, 3.30 mg/kg; Citrate: 7.90 mg/kg, 3.95 mg/kg).
# Animals were reared in SPF grade circumstance to be observed for 24 h. The tumor cells liquid which resuscitated in abdominal cavity of KM mice was diluted with aseptic normal saline at 1:3 ratio. The resulting liquid was inoculated subcutaneously at forelimb with 0.2 mL every animal. After the injection over, the animals were divided to […] with 6 animals per group.
# Four experimental samples were intragastric administered once daily 24 h after inoculation. The positive control CTX was intraperitoneal injected once daily. The animal body weight was recorded every day.
# [1] = Plasma pharmacokinetics after oral administration in mice
# Method: To determine the pharmacokinetic characters of 13a-(S)-deoxytylophorinine and its salts, the studies about plasma pharmacokinetics and the character of distribution in brain were pursued.
# (§1) Male ICR mice. Body weight 18˜22 g.
# (+)-13a-(S)-deoxytylophorinine Tartrate, (+)-13a-(S)-deoxytylophorinine Maleate, (+)-13a-(S)-deoxytylophorinine Citrate. All were dissolved in distilled water as 0.6 mg/ml solution before experiment progressed.
# 72 mice were divided to 3 groups with 24 animals per group, fasting for 16 h and drinking water freely. […] Plasma was isolated by centrifugalization. After the salts were administered orally, the brain tissues of mice were collected at 5 min, 15 min, 2 h time points. 25% tissue homogenate was prepared with normal saline addition. 200 μL of homogenate and plasma were added isovolumic MeCN to precipitate protein. 5 μL of clear supernatant was analyzed by LC/MS/MS.
# (+)-13a-(S)-deoxytylophorinine was dissolved in DMSO and then diluted with MeOH with concentration 10, 50, 100, 500, 1000 and 2500 ng/ml respectively. 10 μl of standard solutions of (+)-13a-(S)-deoxytylophorinine with different concentration above were added to 200 μl of blank plasma sequently to adjust the concentration to 0.5, 2.5, 5, 25, 50, 125 ng/ml respectively. MeCN was added to the solution to precipitate protein, and 5 μl of result clear supernatant was analyzed with LC/MS/MS. Linear regression was ran with the peak area of (+)-13a-(S)-deoxytylophorinine as ordinate and the concentrations as abscissa.
# [2] = Drug distribution in brain tissue after oral administration in mice; type: in vivo, ICR mice; conditions: for Brain contents of (+)-13a-(S)-deoxytylophorinine (ng/ml), Mean ± SD / Brain contents of (+)-13a-(S)-deoxytylophorinine (ng/ml), individual animals 1-3: 6 mg/kg oral
# Method: as §1
# Plasma was isolated by centrifugalization. […] 25% tissue homogenate was prepared with normal saline addition.
# The drug concentration-time data in brain tissue after administered orally of (+)-13a-(S)-deoxytylophorinine tartrate, maleate and citrate were represented in Table 8˜10 and FIG. 6˜8. […] (+)-13a-(S)-deoxytylophorinine could be detected in 5 min. The peak concentration was reached after 15 min, and the compound still can be detected after 2 h after administration.
# [3] = high dose × 7 d, equal moles: prototype 5.0, tartrate 7.05, maleate 6.60, citrate 7.90 mg/kg
# [4] = low dose × 7 d, equal moles: prototype 2.5, tartrate 3.53, maleate 3.30, citrate 3.95 mg/kg
# [5] = 6 mg/kg oral, mice, Time (min) 3
# [6] = 6 mg/kg oral, mice, Time (min) 6
# [7] = male, ICR, mouse, plasma, po, 6 mg/kg
smiles,measurement,setting,value
"COc1ccc2c3c(c4cc(OC)c(OC)cc4c2c1)CN1CCC[C@H]1C3.O=C(O)C(O)C(O)C(=O)O [Tartrate, (+)-13a-(S)-deoxytylophorinine Tartrate]",Solubility in water (words),Solubility in water,soluble in water
same,solubility,Solubility in water; water,39 mg/mL
same,Animal No. (Initial/Final),H22 tumor-bearing mice; [3],6/6
same,Body Weight(g) Final,H22 tumor-bearing mice; [3],13.55 ± 1.87 g
same,Body Weight(g) Initial,H22 tumor-bearing mice; [3],22.00 ± 1.55 g⁻¹
same,Inhibition (%),H22 tumor-bearing mice; [3],80.35** %
same,"Tumor Weight (g, mean ± SD)",H22 tumor-bearing mice; [3],0.23 ± 0.15 g
same,Animal No. (Initial/Final),H22 tumor-bearing mice; [4],6/6
same,Body Weight(g) Final,H22 tumor-bearing mice; [4],19.76 ± 2.34 g
same,Body Weight(g) Initial,H22 tumor-bearing mice; [4],21.50 ± 0.84 g⁻¹
same,Inhibition (%),H22 tumor-bearing mice; [4],31.88%
same,"Tumor Weight (g, mean ± SD)",H22 tumor-bearing mice; [4],0.78 ± 0.48 g
same,Peak concentration in blood,"[1]; 6 mg/kg oral, mice",34.2 ± 3.1 ng/mL
same,Time of peak concentration in blood,"[1]; 6 mg/kg oral, mice",15 min
same,t½z,"[1]; 6 mg/kg oral, mice, plasma, non-compartment model",0.88 h
same,"Blood concentration of (+)-13a-(S)-deoxytylophorinine (ng/ml), individual animals 1-3","[1]; 6 mg/kg oral, mice, Time (min) 0.08",18.4 ng/mL and 11.7 ng/mL and 42.0 ng/mL
same,"Blood concentration of (+)-13a-(S)-deoxytylophorinine (ng/ml), individual animals 1-3","[1]; 6 mg/kg oral, mice, Time (min) 0.25",30.6 ng/mL and 36.1 ng/mL and 35.7 ng/mL
same,"Blood concentration of (+)-13a-(S)-deoxytylophorinine (ng/ml), individual animals 1-3","[1]; 6 mg/kg oral, mice, Time (min) 0.5",16.5 ng/mL and 9.0 ng/mL and 7.8 ng/mL
same,"Blood concentration of (+)-13a-(S)-deoxytylophorinine (ng/ml), individual animals 1-3","[1]; 6 mg/kg oral, mice, Time (min) 1",6.2 ng/mL and 10.0 ng/mL
same,"Blood concentration of (+)-13a-(S)-deoxytylophorinine (ng/ml), individual animals 1-3","[1]; 6 mg/kg oral, mice, Time (min) 2",2.5 ng/mL and 12.4 ng/mL and 8.7 ng/mL
same,"Blood concentration of (+)-13a-(S)-deoxytylophorinine (ng/ml), Mean ± SD",[1]; [5],4.5 ± 1.2 ng/mL
same,"Blood concentration of (+)-13a-(S)-deoxytylophorinine (ng/ml), individual animals 1-3",[1]; [5],3.0 ng/mL and 5.0 ng/mL and 5.3 ng/mL
same,"Blood concentration of (+)-13a-(S)-deoxytylophorinine (ng/ml), individual animals 1-3","[1]; 6 mg/kg oral, mice, Time (min) 4",3.3 ng/mL and 4.2 ng/mL and 1.1 ng/mL
same,"Blood concentration of (+)-13a-(S)-deoxytylophorinine (ng/ml), Mean ± SD",[1]; [6],0.4 ± 0.4 ng/mL
same,"Blood concentration of (+)-13a-(S)-deoxytylophorinine (ng/ml), individual animals 1-3",[1]; [6],0.0 ng/mL and 0.2 ng/mL and 0.8 ng/mL
same,concentration at 5 min,"[1]; male, ICR, mouse, plasma, oral, 6 mg/kg, Blood concentration of (+)-13a-(S)-deoxytylophorinine (ng/ml), Mean ± SD, 6 mg/kg oral, mice, Time (min) 0.08",24 ± 15.9 ng/mL
same,concentration at 15 min,"[1]; male, ICR, mouse, plasma, oral, 6 mg/kg, Blood concentration of (+)-13a-(S)-deoxytylophorinine (ng/ml), Mean ± SD, 6 mg/kg oral, mice, Time (min) 0.25",34.2 ± 3.1 ng/mL
same,concentration at 0.5 h,"[1]; male, ICR, mouse, plasma, oral, 6 mg/kg, Blood concentration of (+)-13a-(S)-deoxytylophorinine (ng/ml), Mean ± SD, 6 mg/kg oral, mice, Time (min) 0.5",11.1 ± 4.7 ng/mL
same,concentration at 1 h,"[1]; male, ICR, mouse, plasma, oral, 6 mg/kg, Blood concentration of (+)-13a-(S)-deoxytylophorinine (ng/ml), Mean ± SD, 6 mg/kg oral, mice, Time (min) 1",8.1 ± 2.7 ng/mL
same,concentration at 2 h,"[1]; male, ICR, mouse, plasma, oral, 6 mg/kg, Blood concentration of (+)-13a-(S)-deoxytylophorinine (ng/ml), Mean ± SD, 6 mg/kg oral, mice, Time (min) 2",7.9 ± 5 ng/mL
same,concentration at 4 h,"[1]; male, ICR, mouse, plasma, oral, 6 mg/kg, Blood concentration of (+)-13a-(S)-deoxytylophorinine (ng/ml), Mean ± SD, 6 mg/kg oral, mice, Time (min) 4",2.8 ± 1.6 ng/mL
same,AUC(0-inf),[1]; [7],37.9 ng·h/mL
same,AUC(0-t),[1]; [7],37.4 ng·h/mL
same,Cmax,[1]; [7],34.2 ng/mL
same,MRT inf,[1]; [7],1.63 h
same,MRT last,[1]; [7],1.57 h
same,Tmax,[1]; [7],0.25 h
same,"Brain contents of (+)-13a-(S)-deoxytylophorinine (ng/ml), Mean ± SD",[2]; Time (min) 5,48.0 ± 21.6 ng/mL
same,"Brain contents of (+)-13a-(S)-deoxytylophorinine (ng/ml), individual animals 1-3",[2]; Time (min) 5,32.4 ng/mL and 38.8 ng/mL and 72.7 ng/mL
same,"Brain contents of (+)-13a-(S)-deoxytylophorinine (ng/ml), Mean ± SD",[2]; Time (min) 15,262.9 ± 11.9 ng/mL
same,"Brain contents of (+)-13a-(S)-deoxytylophorinine (ng/ml), individual animals 1-3",[2]; Time (min) 15,249.3 ng/mL and 271.0 ng/mL and 268.5 ng/mL
same,"Brain contents of (+)-13a-(S)-deoxytylophorinine (ng/ml), Mean ± SD",[2]; Time (min) 120,45.7 ± 33.0 ng/mL
same,"Brain contents of (+)-13a-(S)-deoxytylophorinine (ng/ml), individual animals 1-3",[2]; Time (min) 120,24.7 ng/mL and 28.7 ng/mL and 83.7 ng/mL
same,Drug contents in brain compared with prototype,"[2]; oral, 3 time points",higher than their prototype
